Patent US20230148417A1, “FUSED BICYCLIC DERIVATIVE, PREPARATION METHOD THEREFOR, AND PHARMACEUTICAL USE THEREOF” (Jiangsu Hengrui Pharmaceuticals Co., Ltd., priority 2020, published 2023)
Where two headings read alike, the source gives them in different places. Each block holds one compound with its values, some of them ahead of it.

Columns and labels:
[1] = target: T1, AKT1 (Homo sapiens, UniProt P31749); assay: AKT1 enzymatic assay (KinEASE-STK S3 HTRF kit); format: biochemical; conditions: 2 nM enzyme, 10 μM ATP, 2 μM S3-biotin
T1 construct: purchased Invitrogen P2999
T1 sequence (P31749 whole entry): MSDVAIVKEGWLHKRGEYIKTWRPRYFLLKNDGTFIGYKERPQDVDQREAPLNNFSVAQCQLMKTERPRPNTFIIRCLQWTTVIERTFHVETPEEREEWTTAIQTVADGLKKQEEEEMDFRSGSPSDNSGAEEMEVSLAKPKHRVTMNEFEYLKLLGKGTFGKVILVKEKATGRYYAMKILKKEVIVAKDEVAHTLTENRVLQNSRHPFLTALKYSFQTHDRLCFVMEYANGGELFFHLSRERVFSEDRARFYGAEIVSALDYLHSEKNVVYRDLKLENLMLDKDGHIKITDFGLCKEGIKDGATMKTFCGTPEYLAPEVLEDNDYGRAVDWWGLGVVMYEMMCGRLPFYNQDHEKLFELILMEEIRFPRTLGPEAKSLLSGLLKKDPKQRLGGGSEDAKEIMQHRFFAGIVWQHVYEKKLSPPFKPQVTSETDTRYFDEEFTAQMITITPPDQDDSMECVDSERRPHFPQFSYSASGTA
Procedure: (§1) The following methods were used to determine the inhibitory effect of the compounds of the present disclosure on the kinase activity of AKT1/AKT2/AKT3 in vitro. The experimental methodology is briefly described as follows:
(§2) The enzyme activity of AKT1 (Invitrogen, P2999), AKT2 (Invitrogen, PV3184) and AKT3 (Invitrogen, PV3185) was determined using a KinEASE-STK S3 kit (Cisbio, 62ST3PEC). Test compounds were each first subjected to 3-fold gradient dilution with DMSO from 500 μM to obtain a total of 11 concentrations. The 5× buffer in the kit was diluted to 1×buffer, and DTT (Sigma, 43816-10ML) and MgCl2 were added to make the buffer contain 1 mM DTT and 5 mM MgCl2. Compounds were each subjected to 20-fold dilution with 1× buffer for later use. The enzyme solution was obtained by diluting the AKT1/AKT2/AKT3 kinase with 1× buffer. ATP (Invitrogen, PV3227) and S3-biotin in the kit were diluted with 1× buffer to obtain a substrate-ATP mixture solution for later use. 2 μL of the enzyme solution and 4 μL of the compound solution were added to each well of a 384-well plate (Corning, 4513), and the mixture was incubated at room temperature for 30 min, followed by addition of 4 μL of the ATP and S3-biotin mixture solution. The resulting mixture was incubated at room temperature for 90 min. AKT1 enzyme reaction conditions were a final concentration of 2 nM for enzyme, a final concentration of 10 μM for ATP, and a final concentration of 2 μM for S3-biotin. AKT2 enzyme reaction conditions were a final concentration of 5 nM for enzyme, a final concentration of 10 μM for ATP, and a final concentration of 2 μM for S3-biotin. AKT3 enzyme reaction conditions were a final concentration of 0.4 nM for enzyme, a final concentration of 45 μM for ATP, and a final concentration of 2 μM for S3-biotin. The detection solution was prepared by diluting the S3-cryptate and streptavidin-XL665 with the detection buffer in the kit. After incubation, 10 μL of the detection solution was added to each well, the final concentration of S3-cryptate was a concentration obtained by 200-fold dilution of the stock solution, and the final concentration of streptavidin-XL665 was 125 nM. The mixture was incubated at room temperature for 60 min, values of signals emitted at […] and 620 nm after excitation at 337 nm were measured by using an HTRF module of a multi-functional microplate detector (BMG Labtech, PHERAstar FS), and the reading ratio was multiplied by 10,000 to obtain a specific value. Dose-response curves were drawn according to the concentration of the compounds and the specific values by using Graphpad Prism software, and the IC50 values for the inhibitory activity of the compounds were calculated.

[2] = target: T2, AKT2 (Homo sapiens, UniProt P31751); assay: AKT2 enzymatic assay (KinEASE-STK S3 HTRF kit); format: biochemical; conditions: 5 nM enzyme, 10 μM ATP, 2 μM S3-biotin
T2 construct: purchased Invitrogen PV3184
T2 sequence (P31751 whole entry): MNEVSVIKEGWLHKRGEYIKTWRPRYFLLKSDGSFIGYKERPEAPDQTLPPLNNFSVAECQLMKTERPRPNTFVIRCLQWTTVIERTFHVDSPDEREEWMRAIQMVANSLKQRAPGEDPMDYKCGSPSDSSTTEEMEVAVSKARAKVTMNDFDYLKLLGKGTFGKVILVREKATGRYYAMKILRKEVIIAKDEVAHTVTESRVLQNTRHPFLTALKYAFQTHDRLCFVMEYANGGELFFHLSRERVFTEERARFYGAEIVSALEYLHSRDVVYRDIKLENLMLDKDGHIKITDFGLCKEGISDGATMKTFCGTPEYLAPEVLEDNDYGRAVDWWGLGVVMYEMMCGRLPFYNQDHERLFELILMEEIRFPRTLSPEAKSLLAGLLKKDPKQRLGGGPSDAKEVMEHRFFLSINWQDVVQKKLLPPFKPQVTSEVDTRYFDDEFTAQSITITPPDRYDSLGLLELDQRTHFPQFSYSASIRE
Procedure: as §1, §2

[3] = target: T3, AKT3 (Homo sapiens, UniProt Q9Y243); assay: AKT3 enzymatic assay (KinEASE-STK S3 HTRF kit); format: biochemical; conditions: 0.4 nM enzyme, 45 μM ATP, 2 μM S3-biotin
T3 construct: purchased Invitrogen PV3185
T3 sequence (Q9Y243 whole entry): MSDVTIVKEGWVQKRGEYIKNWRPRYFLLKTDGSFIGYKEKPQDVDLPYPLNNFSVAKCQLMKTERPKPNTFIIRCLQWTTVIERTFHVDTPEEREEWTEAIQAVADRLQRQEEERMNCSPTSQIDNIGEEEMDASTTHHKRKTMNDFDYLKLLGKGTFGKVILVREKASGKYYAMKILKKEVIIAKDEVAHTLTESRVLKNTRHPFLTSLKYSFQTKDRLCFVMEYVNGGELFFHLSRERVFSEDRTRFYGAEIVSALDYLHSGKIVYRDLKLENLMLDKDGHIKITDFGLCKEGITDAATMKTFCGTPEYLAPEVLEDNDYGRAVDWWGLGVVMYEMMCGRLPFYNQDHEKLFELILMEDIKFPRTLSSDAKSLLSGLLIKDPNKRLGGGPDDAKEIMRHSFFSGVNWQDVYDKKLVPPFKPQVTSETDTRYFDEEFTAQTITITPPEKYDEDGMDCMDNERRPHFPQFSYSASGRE
Procedure: as §1, §2

[4] = Pharmacokinetic study in nude mice, intragastric administration; format: in vivo; conditions: female, mouse, po, Balb/c nude mice, i.g., plasma; for Vd/F: read-out: Apparent volume of distribution Vz/F; for AUC(0-t): read-out: Area under curve AUC0-t; for CL/F: read-out: Clearance CL/F; for half-life: read-out: Half-life T1/2 (converted); for Cmax: read-out: Plasma concentration Cmax; for MRT: read-out: Residence time MRT
Procedure: The drug concentration in the plasma of the test animals (Balb/c nude mice) at different time points after intragastric administration (i.g.) of the test compounds was determined by using an LC/MS/MS method. The pharmacokinetic performance of the compounds of the present disclosure in nude mice was studied and their pharmacokinetic profile was evaluated.
18 Balb/c nude mice, female, divided into 2 groups and purchased from Vital River Laboratory Animal Technology Co., Ltd.
A certain amount of compound was weighed out, 99.8% 0.5% methylcellulose was added into the compound, and then 0.2% Tween was added. The mixture was subjected to ultrasonic treatment to obtain a suspension, which was stirred for administration.
The nude mice were subjected to intragastric administration, the administration dose was 50 mg/kg or 100 mg/kg, and the administration volume was 0.2 mL/10 g.
The test compound was administered intragastrically to the nude mice, and 0.1 mL of blood was collected before administration and 0.25 h, 0.5 h, 1.0 h, 2.0 h, 4.0 h, 6.0 h, 8.0 h, 11.0 h and 24.0 h after administration. The blood was placed in an EDTA-K2 anticoagulation tube and centrifuged at 10,000 rpm for 1 min (4° C.), and plasma was separated out within 1 h and then stored at −20° C. for testing. The process from blood sampling to centrifugation was performed under an ice bath.
The content of the test compounds at different concentrations in the nude mice plasma after intragastric administration was determined: 20 μL of nude mouse plasma at each time point after administration was mixed with 50 μL of internal standard solution (camptothecin, 100 ng/mL) and 200 μL of acetonitrile, and the mixture was vortexed for 5 min and centrifuged for 10 min at 3700 rpm. 1 μL of supernatant of the plasma sample was taken for LC/MS/MS analysis.

[5] = Pharmacokinetic study in rats, administration by injection (i.v.); format: in vivo; conditions: both sexes, rat, iv, SD rats, 1 mg/kg, plasma; for Vd: read-out: Apparent volume of distribution Vz; for AUC(0-t): read-out: Area under curve AUC0-t; for clearance: read-out: Clearance CL; for half-life: read-out: Half-life T1/2 (converted); for MRT: read-out: Residence time MRT
Procedure: The drug concentration in the plasma of the test animals (SD rats) at different time points after injection (i.v.) of the test compounds was determined by using an LC/MS/MS method. The pharmacokinetic performance in rats of the compounds of present disclosure was studied and their pharmacokinetic profile was evaluated.
8 SD rats, half male and half female, divided into 2 groups, purchased from Vital River Laboratory Animal Technology Co., Ltd.
A certain amount of the compound was weighed out, and 5% of DMSO, 5% of Tween 80 and 90% of normal saline were added to obtain a colorless and clear solution.
The rats were subjected to administration by injection, the administration dose was 1 mg/kg, and the administration volume was 5 mL/kg.
The test compound was administered by injection to the rats, and 0.2 mL of blood was collected from the orbit before administration and 5 min, 0.25 h, 0.5 h, 1.0 h, 2.0 h, 4.0 h, 8.0 h, 11.0 h and 24.0 h after administration. The blood was placed in an EDTA-K2 anticoagulation tube and centrifuged at 10,000 rpm for 1 min (4° C.), and plasma was separated out within 1 h and then stored at −20° C. for testing. The process from blood sampling to centrifugation was performed under an ice bath.
The content of the test compounds at different concentrations in the rat plasma after administration by injection was determined: 25 μL of rat plasma at each time point after administration was mixed with 50 μL of internal standard solution (camptothecin, 100 ng/mL) and 200 μL of acetonitrile, and the mixture was vortexed for 5 min and centrifuged for 10 min at 3700 rpm. 3 μL of supernatant of the plasma sample was taken for LC/MS/MS analysis.

IC50 [1]: 20 nM
IC50 [2]: 64.9 nM
IC50 [3]: 27.6 nM
Compound: CC(C)NC[C@@H](C(=O)N1[C@@H]2CC[C@H]1CN(c1ncnc3[nH]ccc13)C2)c1ccc(Cl)cc1 [Example 1, (S)-1-((1R,5S)-3-(7H-pyrrolo[2,3-d]pyrimidin-4-yl)-3,8-diazabicyclo[3.2.1]octan-8-yl)-2-(4-chlorophenyl)-3-(isopropylamino)propan-1-one]

Compound: CC(C)NC[C@@H](C(=O)N1C2CCC1CN(c1ncnc3c1C(C)(C)C(=O)N3)C2)c1ccc(Cl)cc1 [Example 2]
IC50 [1]: 60 nM
IC50 [2]: 74.1 nM
IC50 [3]: 2 nM
Vd/F ([4]; 50 mg/kg): 8.03 L/kg
AUC(0-t) ([4]; 50 mg/kg): 20200 ng·h/mL
CL/F ([4]; 50 mg/kg): 41.2 mL/min/kg
half-life ([4]; 50 mg/kg): 2.3 h
Cmax ([4]; 50 mg/kg): 3000 ng/mL
MRT ([4]; 50 mg/kg): 4.9 h
Vd/F ([4]; 100 mg/kg): 16.2 L/kg
AUC(0-t) ([4]; 100 mg/kg): 36000 ng·h/mL
CL/F ([4]; 100 mg/kg): 45.4 mL/min/kg
half-life ([4]; 100 mg/kg): 4.1 h
Cmax ([4]; 100 mg/kg): 3500 ng/mL
MRT ([4]; 100 mg/kg): 6.7 h
Vd [5]: 13 L/kg
AUC(0-t) [5]: 221 ng·h/mL
clearance [5]: 75.4 mL/min/kg
half-life [5]: 2 h
MRT [5]: 2.6 h

IC50 [1]: 5.2 nM
IC50 [2]: 3.9 nM
IC50 [3]: 1.2 nM
Compound: Cc1c[nH]c2ncnc(N3C[C@H]4CC[C@@H](C3)N4C(=O)[C@H](CNC(C)C)c3ccc(Cl)cc3)c12 [Example 3, (S)-2-(4-chlorophenyl)-3-(isopropylamino)-1-((1R,5S)-3-(5-methyl-7H-pyrrolo[2,3-d]pyrimidin-4-yl)-3,8-diazabicyclo[3.2.1]octan-8-yl]propan-1-one]

Compound: CC(C)NC[C@@H](C(=O)N1[C@@H]2CC[C@H]1CN(c1ncnc3c1[C@H](C)C[C@H]3O)C2)c1ccc(Cl)cc1 [Example 4, (S)-2-(4-chlorophenyl)-1-((1R,5S)-3-((5R,7R)-7-hydroxy-5-methyl-6,7-dihydro-5H-cyclopenta[d]pyrimidin-4-yl)-3,8-diazabicyclo[3.2.1]octan-8-yl)-3-(isopropylamino)propan-1-one]
IC50 [1]: 38.6 nM
IC50 [2]: 46.4 nM
IC50 [3]: 55.6 nM
Vd/F ([4]; 50 mg/kg): 8.71 L/kg
AUC(0-t) ([4]; 50 mg/kg): 14300 ng·h/mL
CL/F ([4]; 50 mg/kg): 57.5 mL/min/kg
half-life ([4]; 50 mg/kg): 1.8 h
Cmax ([4]; 50 mg/kg): 4130 ng/mL
MRT ([4]; 50 mg/kg): 3 h
Vd/F ([4]; 100 mg/kg): 13.2 L/kg
AUC(0-t) ([4]; 100 mg/kg): 27500 ng·h/mL
CL/F ([4]; 100 mg/kg): 60.5 mL/min/kg
half-life ([4]; 100 mg/kg): 2.5 h
Cmax ([4]; 100 mg/kg): 5500 ng/mL
MRT ([4]; 100 mg/kg): 3.7 h
Vd [5]: 16.3 L/kg
AUC(0-t) [5]: 205 ng·h/mL
clearance [5]: 82.9 mL/min/kg
half-life [5]: 2.5 h
MRT [5]: 2.2 h

Compound: CC(C)NC[C@@H](C(=O)N1C2CCCC1CN(c1ncnc3[nH]ccc13)C2)c1ccc(Cl)cc1 [Example 5, (2S)-1-(3-(7H-pyrrolo[2,3-d]pyrimidin-4-yl)-3,9-diazabicyclo[3.3.1]nonan-9-yl)-2-(4-chlorophenyl)-3-(isopropylamino)propan-1-one]
IC50 [1]: 68.1 nM
IC50 [2]: 70.1 nM
IC50 [3]: 112 nM

Compound: CC(C)NC[C@@H](C(=O)N1C2COCC1CN(c1ncnc3[nH]ccc13)C2)c1ccc(Cl)cc1 [Example 6, (2S)-1-(7-(7H-pyrrolo[2,3-d]pyrimidin-4-yl)-3-oxa-7,9-diazabicyclo[3.3.1]nonan-9-yl)-2-(4-chlorophenyl)-3-(isopropylamino)propan-1-one]
IC50 [1]: 88.4 nM
IC50 [2]: 141 nM
IC50 [3]: 268 nM

Compound: CC(C)NC[C@@H](C(=O)N1CC2COCC(C1)N2c1ncnc2[nH]ccc12)c1ccc(Cl)cc1 [Example 7, (2S)-1-(9-(7H-pyrrolo[2,3-d]pyrimidin-4-yl)-3-oxa-7,9-diazabicyclo[3.3.1]nonan-7-yl)-2-(4-chlorophenyl)-3-(isopropylamino)-propan-1-one]
IC50 [1]: 82 nM
IC50 [2]: 270 nM
IC50 [3]: 60 nM

IC50 [1]: 56.2 nM
IC50 [2]: 54 nM
IC50 [3]: 66 nM
Compound: CC(C)NC[C@@H](C(=O)N1[C@@H]2CC[C@H]1CN(c1ncnc3c1[C@H](C)C[C@H]3F)C2)c1ccc(Cl)cc1 [Example 8, (S)-2-(4-chlorophenyl)-1-((1R,5S)-3-((5R,7R)-7-fluoro-5-methyl-6,7-dihydro-5H-cyclopenta[d]pyrimidin-4-yl)-3,8-diazabicyclo[3.2.1]octan-8-yl)-3-(isopropylamino)propan-1-one]

Compound: Cc1c[nH]c2nccc(N3C[C@H]4CC[C@@H](C3)N4C(=O)[C@H](CNC(C)C)c3ccc(Cl)cc3)c12 [Example 9, (S)-2-(4-chlorophenyl)-3-(isopropylamino)-1-((1R,5S)-3-(3-methyl-1H-pyrrolo[2,3-b]pyridin-4-yl)-3,8-diazabicyclo[3.2.1]octan-8-yl)propan-1-one]
IC50 [1]: 19.6 nM
IC50 [2]: 13.1 nM
IC50 [3]: 6.3 nM
